Experiment [1] has as its system Plasmodium falciparum parasites (3D7 strain). Put plainly: Coenzyme A rescue assay (imaging-based growth inhibition, with or without 0.8 mM CoA). The note with it: for IC50-ratio (CoA/solvent): IC50 with 0.8 mM CoA / IC50 solvent, threshold 5× significant; for IC50: Plasmodium falciparum; for IC50 shift with CoA supplementation: IC50 CoA / IC50 solvent. The class given is cell-based. On the procedure:
Plasmodium falciparum parasites (3D7 strain) were grown in RPMI 1640 supplemented with 25 mM HEPES, 5 mg/mL Albumax II, and 0.37 mM hypoxanthine. Parasites were subjected to two rounds of sorbitol synchronization before undergoing compound treatment. Ring stage parasites were exposed to the experimental compounds alone, or in combination with 0.8 mM coenzyme A (CoA) in 384-wells imaging microplates (CellCarrier, PerkinElmer), as previously described. […] Puromycin 5 µM and untreated solvent were used as in-plate positive and negative controls, respectively. Samples were dissolved in DMSO to a final assay DMSO concentration of 0.4%. […] All sample and control wells contained the same final amounts of solvents. Plates were incubated for 72 h at 90% N2, 5% CO2, 5% O2, then parasites were stained with 2-(4-amidinophenyl)-1H-indole-6-carboxamidine (DAPI), and imaged using an Opera QEHS micro-plate confocal imaging system (PerkinElmer) with 405 nm excitation and 450/50 emission filter, using a 20× water immersion objective. Images were analysed as previously described, to obtain normalized % inhibition data, which were then used to calculate IC50 values, through a four parameter logistic curve fitting in GraphPad Prism v.6. The experiment was carried out in two independent biological replicates, each consisting of two technical replicates. Dose–response curves are illustrated in the Additional file 4.

The subject of experiment [2] is human embryonic kidney (HEK-293) cells. Put plainly: Cytotoxicity assay: human HEK-293 cell line (resazurin). The class given is cell-based. Particulars: for IC50: Homo sapiens, HEK293, cytotoxicity, 72 h, read-out: IC50 [µM], HEK-293. On the procedure: Cytotoxicity against human embryonic kidney (HEK-293) cells was assessed as previously described. […] Cells were detached using Accutase treatment, then seeded into black clear-bottom 384-wells fluorescence microplates (Greiner), at a cell density of 44,000 cells/mL in 45 µL/well, using a Benchtop liquid dispenser (Thermo Fisher Multidrop). After seeding, the cells were brought back to the incubator and allowed to settle and reattach overnight. […] Plates were incubated at the standard condition above for 72 h. At the end of the incubation the medium in each well was replaced with 1 mM resazurin, and the plates were read using a multilabel microplate reader (PerkinElmer Envision) at 530 nm excitation and 595 nm emission wavelengths after a further 6 h incubation. Inhibition data was generated using Office Excel 2013 (Microsoft). IC50 values were calculated by fitting a four-parameter nonlinear regression model using Prism v.6.0 (Graphpad Software Inc., La Jolla, CA, USA).

Setting [3] is: 3D7, 72 h, 0.8 mM CoA (rescue), 72 h, read-out: IC50 [µM], Pf3D7 + 0.8 mM CoA.
Where [4] appears, read: 3D7, 72 h, no CoA (solvent, non-rescue), 72 h, read-out: IC50 [µM], Pf3D7 + solvent.

Data on seven molecules can be found in article PMC5430599, “Antiplasmodial dihetarylthioethers target the coenzyme A synthesis pathway in Plasmodium falciparum erythrocytic stages” (Malaria Journal, 2017).

Structures are written as SMILES. Read-outs that look alike come from different tables or passages of the source.

By IC50 is commonly meant the concentration at which inhibition is half-maximal. `c1cnc2[nH]c(Sc3ncnc4sccc34)nc2c1` [Compound 8k]: in experiment [1], the “IC50-ratio (CoA/solvent)” value is reported as 7.11. Also, the IC50 in experiment [1] (setting [3]) was 1.06 ± 0.03 µM; in experiment [1] (setting [4]), 0.149 ± 0.021 µM; in experiment [2], greater than 20 µM.

For `c1coc(-c2nnc(Sc3ncnc4sccc34)o2)c1` [Compound 3a], the “IC50-ratio (CoA/solvent)” value in experiment [1] came to 16.3. For the same molecule, the values for the IC50 in experiment [1] (setting [3]), in experiment [1] (setting [4]) and in experiment [2] were 4.61 ± 0.15 µM, 0.283 ± 0.073 µM and greater than 10 µM, respectively.

For the molecule `c1coc(Sc2ncnc3sccc23)n1` [Compound 8e], the “IC50 shift with CoA supplementation” value in experiment [1] is 34 fold. Further, the “IC50-ratio (CoA/solvent)” value in experiment [1] came out at 34.5. The IC50 in experiment [1] (setting [3]) is 2.6 ± 0.4 µM; in experiment [1] (setting [4]) it was 0.0747 ± 0.021 µM; in experiment [1] (3D7, no CoA, read-out: IC50, 3D7 strain) it was 0.075 µM; in experiment [2] it was greater than 10 µM. The “fold higher antiplasmodial activity” value in experiment [1] (compared to 8c) is on record as 17 fold. The “selectivity HEK-293 vs 3D7 parasites” value in experiment [2] (IC50 HEK-293 / IC50 3D7) is greater than 133 fold.

As for `c1csc(Sc2ncnc3sccc23)n1` [Compound 8d], in experiment [1], the “IC50 shift with CoA supplementation” value is 67 fold. Also, in experiment [1], the “IC50-ratio (CoA/solvent)” value is given as 67.3. The half-maximal inhibitory concentration (IC50) in experiment [1] (setting [3]) is 2.6 ± 0.4 µM; in experiment [1] (setting [4]), 0.039 ± 0.001 µM; in experiment [2], greater than 10 µM.

With `Cn1ccnc1Sc1ncnc2sccc12` [Compound 8c], the IC50 in experiment [1] (setting [3]) was 2.31 ± 0.17 µM; in experiment [1] (setting [4]), 1.3 µM; in experiment [2] it was greater than 40 µM.

As to `c1ccc2[nH]c(Sc3ncnc4sccc34)nc2c1` [Compound 8g], the “IC50-ratio (CoA/solvent)” value in experiment [1] amounted to 7.23. For the same molecule, the values for the IC50 in experiment [1] (setting [3]), in experiment [1] (setting [4]) and in experiment [2] were 0.531 ± 0.007 µM, 0.0734 ± 0.0022 µM and greater than 10 µM, respectively.

Consider `Nc1nnc(Sc2ncnc3sccc23)s1` [Compound 8f], for which the “IC50 shift with CoA supplementation” value in experiment [1] was found to be 117 fold. The “IC50-ratio (CoA/solvent)” value in experiment [1] was 117. The 50% inhibitory concentration (IC50) in experiment [1] (setting [3]) is greater than 11 µM; in experiment [1] (setting [4]), 0.096 ± 0.006 µM; in experiment [2], greater than 4 µM.
